Our source for the solubility in water values is patent publication US20100311751A1, “SOLID DISPERSIONS CONTAINING AN APOPTOSIS-PROMOTING AGENT” (ABBOTT LABORATORIES, priority 2009, published 2010).

This data set in a line: solubility in water. Particulars: pH 2. It is filed as physicochemical. From the text:
Examples of such active ingredients are, for example, Biopharmaceutics Classification System (BCS) Class IV drug substances that are characterized by low solubility and low permeability (see “Waiver of in vivo bioavailability and bioequivalence studies for immediate-release solid oral dosage forms based on a biopharmaceutics classification system”, U.S. Department of Health and Human Services, Food and Drug Administration, Center for Drug Evaluation and Research (CDER), August 2000). It will be recognized that aqueous solubility of many compounds is pH-dependent; in the case of such compounds the solubility of interest herein is at a physiologically relevant pH, for example a pH of about 1 to about 8.

Consider `CC1(C)CCC(c2ccc(Cl)cc2)=C(CN2CCN(c3ccc(C(=O)NS(=O)(=O)c4ccc(N[C@H](CCN5CCOCC5)CSc5ccccc5)c(S(=O)(=O)C(F)(F)F)c4)cc3)CC2)C1` [ABT-263], for which the solubility in water result is given as “less than 4 μg/ml”.
